How the values were obtained:
Raw264.7 p110 γ = target: T1, Raw264.7 p110 γ (Mus musculus, UniProt Q9JHG7); test: Raw264.7 p110 γ cellular assay (phospho-AKT); assay type: cell-based; conditions: serum-starved RAW264.7 cells stimulated with C5a
T1 construct: reduction of phospho-AKT in stimulated RAW 264.7 cells; endogenous in cells; host or cells: RAW264.7 macrophages
Text: (b) PI3K-γ Selective Assay
Briefly, serum-starved PAW264.7 cells are stimulated with a known GPCR agonist C5a. […] Cells can be treated with test compounds prior to, simultaneously with, or subsequent to the stimulation by C5a. RAW 264.7 cells respond to the complement component fragment C5a through activation of the C5a receptor, and the C5a receptor activates macrophages and induces cell migration.

PI3K α = target: T2, PI3K α (Homo sapiens, UniProt P42336); test: PI3-Kinase Promega ADP-Glo Max assay; assay type: biochemical; conditions: 20 nM kinase, 3 mM ATP, 500 uM diC8-PtdInsP
T2 construct: purchased Millipore
Protocol: (§1) Promega ADP-Glo Max assay kit (Cat. No. V7002) was utilized to determine IC50 values for α, β, δ and γ isoforms of human Class I PI3 kinases (Millipore). Samples of kinase (20 nM α or δ, 40 nM β or γ isoform) were incubated with compound for 15 minutes at room temperature in reaction buffer (15 mM HEPES pH 7.4, 20 mM NaCl, 1 mM EGTA, 0.02% Tween 20, 10 mM MgCl2, 0.2 mg/mL bovine-γ-globulins) followed by addition of ATP/diC8-PtdInsP mixture to give final concentrations of 3 mM ATP and 500 uM diC8-PtdInsP. Reactions were incubated at room temperature for 2 hours followed by addition of 25 uL of stop solution. After a 40-minute incubation at room temperature, 50 uL of Promega detection mix was added followed by incubation for 1 hour at room temperature. Plates were then read on Envision plate reader in luminescence mode. Data was converted to % inhibition using the following equation below:
(§2) [formula] where S is the sample luminescence, Pos is a positive control without added PI3K, Neg is the negative control without added compound. Data was then plotted as % inhibition vs compound concentration. Data fit to 4 parameter logistic equation to determine IC50 values: […]
(§3) Certain compounds provided herein were tested in PI3-Kinase Promega Assay using procedures as described above to determine IC50 values for α, β, δ and/or γ isoforms.

PI3K β = target: T3, PI3K β (Homo sapiens, UniProt P42338); test: PI3-Kinase Promega ADP-Glo Max assay; assay type: biochemical; conditions: 40 nM kinase, 3 mM ATP, 500 uM diC8-PtdInsP
T3 construct: purchased Millipore
Protocol: as §1, §2, §3

PI3K δ = target: T4, PI3K δ (Homo sapiens, UniProt O00329); test: PI3-Kinase Promega ADP-Glo Max assay; assay type: biochemical; conditions: 20 nM kinase, 3 mM ATP, 500 uM diC8-PtdInsP
T4 construct: purchased Millipore
T4 sequence (O00329 whole entry): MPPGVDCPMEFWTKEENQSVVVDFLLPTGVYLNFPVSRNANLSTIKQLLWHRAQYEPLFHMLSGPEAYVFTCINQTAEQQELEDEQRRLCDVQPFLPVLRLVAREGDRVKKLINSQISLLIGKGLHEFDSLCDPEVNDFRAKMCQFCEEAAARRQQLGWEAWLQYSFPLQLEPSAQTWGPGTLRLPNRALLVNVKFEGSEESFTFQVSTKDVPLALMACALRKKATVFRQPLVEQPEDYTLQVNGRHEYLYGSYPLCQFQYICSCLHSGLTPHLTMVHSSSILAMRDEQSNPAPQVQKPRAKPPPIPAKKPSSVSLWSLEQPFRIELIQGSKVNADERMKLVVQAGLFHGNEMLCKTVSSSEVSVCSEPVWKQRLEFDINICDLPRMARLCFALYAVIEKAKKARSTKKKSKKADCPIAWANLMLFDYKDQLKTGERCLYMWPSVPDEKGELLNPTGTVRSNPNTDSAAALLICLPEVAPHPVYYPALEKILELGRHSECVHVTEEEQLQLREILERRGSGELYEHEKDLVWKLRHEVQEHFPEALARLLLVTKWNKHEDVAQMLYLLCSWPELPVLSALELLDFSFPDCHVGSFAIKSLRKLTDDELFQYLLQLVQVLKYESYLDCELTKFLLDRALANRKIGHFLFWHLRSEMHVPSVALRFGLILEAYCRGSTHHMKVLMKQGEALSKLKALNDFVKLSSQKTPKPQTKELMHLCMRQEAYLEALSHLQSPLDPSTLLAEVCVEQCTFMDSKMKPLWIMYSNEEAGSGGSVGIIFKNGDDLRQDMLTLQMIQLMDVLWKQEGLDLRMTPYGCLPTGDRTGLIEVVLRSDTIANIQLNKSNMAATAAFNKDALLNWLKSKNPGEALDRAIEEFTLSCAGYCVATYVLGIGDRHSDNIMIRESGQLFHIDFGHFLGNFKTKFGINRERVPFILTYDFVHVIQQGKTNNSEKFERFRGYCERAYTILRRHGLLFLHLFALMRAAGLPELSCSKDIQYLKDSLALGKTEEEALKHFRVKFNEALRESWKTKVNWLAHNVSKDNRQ
T4 sequence (P27986 whole entry partner): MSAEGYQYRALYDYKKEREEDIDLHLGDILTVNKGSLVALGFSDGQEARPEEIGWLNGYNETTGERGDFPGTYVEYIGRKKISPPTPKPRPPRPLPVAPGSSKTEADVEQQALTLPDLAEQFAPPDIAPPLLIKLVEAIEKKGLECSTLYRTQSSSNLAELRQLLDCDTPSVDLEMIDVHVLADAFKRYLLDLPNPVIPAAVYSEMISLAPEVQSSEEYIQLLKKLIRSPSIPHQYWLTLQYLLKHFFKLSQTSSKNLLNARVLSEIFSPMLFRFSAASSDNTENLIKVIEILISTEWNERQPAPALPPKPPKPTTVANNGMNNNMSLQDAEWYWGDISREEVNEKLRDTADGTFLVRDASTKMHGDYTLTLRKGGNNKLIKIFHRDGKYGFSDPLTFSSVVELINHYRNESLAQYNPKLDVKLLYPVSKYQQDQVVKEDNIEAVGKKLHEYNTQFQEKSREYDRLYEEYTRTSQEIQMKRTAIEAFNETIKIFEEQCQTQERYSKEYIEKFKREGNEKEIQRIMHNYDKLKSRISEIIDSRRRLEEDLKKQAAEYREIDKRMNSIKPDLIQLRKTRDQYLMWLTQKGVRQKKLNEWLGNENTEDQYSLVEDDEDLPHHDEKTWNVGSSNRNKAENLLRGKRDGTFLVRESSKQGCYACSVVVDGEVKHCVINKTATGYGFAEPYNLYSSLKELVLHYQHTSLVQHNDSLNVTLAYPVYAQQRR
Protocol: as §1, §2, §3

PI3K γ = target: T5, PI3K γ (Homo sapiens, UniProt P48736); test: PI3-Kinase Promega ADP-Glo Max assay; assay type: biochemical; conditions: 40 nM kinase, 3 mM ATP, 500 uM diC8-PtdInsP
T5 construct: purchased Millipore
T5 sequence (P48736 whole entry): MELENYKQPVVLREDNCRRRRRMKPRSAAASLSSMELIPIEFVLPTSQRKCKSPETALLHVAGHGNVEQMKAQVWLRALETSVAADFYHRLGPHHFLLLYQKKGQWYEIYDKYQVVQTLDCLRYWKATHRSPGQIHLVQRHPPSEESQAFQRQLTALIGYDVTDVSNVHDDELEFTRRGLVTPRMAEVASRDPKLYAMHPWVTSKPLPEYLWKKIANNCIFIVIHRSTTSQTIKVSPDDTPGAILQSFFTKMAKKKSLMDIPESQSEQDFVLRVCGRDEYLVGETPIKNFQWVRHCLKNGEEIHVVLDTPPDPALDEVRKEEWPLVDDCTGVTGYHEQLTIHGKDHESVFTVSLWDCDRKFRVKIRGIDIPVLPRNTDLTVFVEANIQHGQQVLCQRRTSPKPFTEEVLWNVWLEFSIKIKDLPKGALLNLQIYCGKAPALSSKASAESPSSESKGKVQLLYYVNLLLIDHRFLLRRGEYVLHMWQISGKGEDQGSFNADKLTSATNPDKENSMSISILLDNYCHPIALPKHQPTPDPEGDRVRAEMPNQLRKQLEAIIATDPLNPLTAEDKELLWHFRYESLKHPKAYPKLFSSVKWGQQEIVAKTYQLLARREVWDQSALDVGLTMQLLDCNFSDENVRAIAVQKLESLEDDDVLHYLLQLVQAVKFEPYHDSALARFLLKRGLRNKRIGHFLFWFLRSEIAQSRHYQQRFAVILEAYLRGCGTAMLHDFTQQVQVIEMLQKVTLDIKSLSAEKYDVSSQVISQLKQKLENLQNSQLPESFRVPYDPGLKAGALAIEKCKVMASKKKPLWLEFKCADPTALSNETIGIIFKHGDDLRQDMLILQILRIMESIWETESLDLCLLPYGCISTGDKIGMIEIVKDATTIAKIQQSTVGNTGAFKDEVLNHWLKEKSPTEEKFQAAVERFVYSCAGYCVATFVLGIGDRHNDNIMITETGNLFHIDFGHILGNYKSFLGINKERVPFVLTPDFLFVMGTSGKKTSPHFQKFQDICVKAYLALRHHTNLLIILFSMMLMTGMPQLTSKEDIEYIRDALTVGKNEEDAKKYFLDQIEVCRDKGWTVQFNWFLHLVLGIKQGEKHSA
Protocol: Promega ADP-Glo Max assay kit (Cat. No. V7002) was utilized to determine IC50 values for α, β, δ and γ isoforms of human Class I PI3 kinases (Millipore). […] Reactions were incubated at room temperature for 2 hours followed by addition of 25 uL of stop solution. After a 40-minute incubation at room temperature, 50 uL of Promega detection mix was added followed by incubation for 1 hour at room temperature. Plates were then read on Envision plate reader in luminescence mode. Data was converted to % inhibition using the following equation below:
[formula] where S is the sample luminescence, Pos is a positive control without added PI3K, Neg is the negative control without added compound. Data was then plotted as % inhibition vs compound concentration.
as §3

RAJI p110 δ = RAJI p110 δ (Homo sapiens, UniProt O00329); test: RAJI p110 δ cellular assay (phospho-AKT);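 note: potency based on lowered phosphorylated AKT in RAJI cells, as a readout of PI3K-δ dependent B-cell receptor signaling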
RAJI p110 δ, sequence (O00329 whole entry): as the sequence (O00329 whole entry) above
RAJI p110 δ, sequence (P27986 whole entry partner): as the sequence (P27986 whole entry partner) above
Text: (a) PI3K-δ Selective Assay
Reduction of phospho-AKT is indicative of compounds that may inhibit B-cell proliferation and function in certain diseases.

T1 sequence (Q9JHG7 whole entry): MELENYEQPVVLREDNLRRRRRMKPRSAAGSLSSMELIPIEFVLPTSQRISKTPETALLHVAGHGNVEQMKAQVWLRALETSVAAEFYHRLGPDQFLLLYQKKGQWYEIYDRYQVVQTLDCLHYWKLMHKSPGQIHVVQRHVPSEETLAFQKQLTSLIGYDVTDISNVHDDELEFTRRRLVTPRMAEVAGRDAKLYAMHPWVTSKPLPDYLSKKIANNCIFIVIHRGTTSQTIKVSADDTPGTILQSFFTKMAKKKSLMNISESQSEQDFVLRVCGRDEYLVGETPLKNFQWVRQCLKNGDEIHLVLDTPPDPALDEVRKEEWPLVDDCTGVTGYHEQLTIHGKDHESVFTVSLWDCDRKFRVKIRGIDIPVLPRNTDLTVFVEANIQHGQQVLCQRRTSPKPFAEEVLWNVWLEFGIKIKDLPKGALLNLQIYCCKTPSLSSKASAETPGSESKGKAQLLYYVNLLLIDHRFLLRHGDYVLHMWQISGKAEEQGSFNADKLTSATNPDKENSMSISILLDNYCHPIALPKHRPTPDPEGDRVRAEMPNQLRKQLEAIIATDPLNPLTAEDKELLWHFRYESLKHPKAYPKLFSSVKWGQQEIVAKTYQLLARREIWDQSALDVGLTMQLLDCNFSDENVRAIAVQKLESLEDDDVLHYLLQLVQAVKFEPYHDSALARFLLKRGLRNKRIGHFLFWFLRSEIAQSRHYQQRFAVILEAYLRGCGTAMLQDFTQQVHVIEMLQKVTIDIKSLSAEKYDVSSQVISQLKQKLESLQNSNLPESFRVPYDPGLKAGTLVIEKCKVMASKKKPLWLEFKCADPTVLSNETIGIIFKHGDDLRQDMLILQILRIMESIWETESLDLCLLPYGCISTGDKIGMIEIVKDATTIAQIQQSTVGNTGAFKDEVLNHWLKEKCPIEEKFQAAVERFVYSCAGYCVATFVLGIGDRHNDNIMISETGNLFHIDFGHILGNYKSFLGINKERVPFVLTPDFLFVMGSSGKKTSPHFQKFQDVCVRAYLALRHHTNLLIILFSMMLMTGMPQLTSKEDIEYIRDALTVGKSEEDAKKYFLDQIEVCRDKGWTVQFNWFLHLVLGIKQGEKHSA

Structure (SMILES)	IC50 (Raw264.7 p110 γ) [nM]	IC50 (PI3K α) [nM]	IC50 (PI3K β) [nM]	IC50 (PI3K δ) [nM]	IC50 (PI3K γ) [nM]	IC50 (RAJI p110 δ) [nM]
C[C@H](NC(=O)c1cccnc1N)c1cc2cccc(Cl)c2c(=O)n1-c1ccccc1 [Compound 3]	1000 to 10000					
C[C@H](NC(=O)c1nccnc1N)c1cc2cccc(Cl)c2c(=O)n1-c1ccccc1 [Compound 4, (S)-3-amino-N-(1-(8-chloro-1-oxo-2-phenyl-1,2-dihydroisoquinolin-3-yl)ethyl)pyrazine-2-carboxamide]	< 100	1000 to 10000	100 to 1000	< 100	100 to 1000	< 100
C[C@H](NC(=O)c1cnc2cccnn12)c1cc2cccc(Cl)c2c(=O)n1-c1ccccc1 [Compound 13]	100 to 1000		1000 to 10000	100 to 1000	1000 to 10000	100 to 1000
C[C@H](NC(=O)c1cnccn1)c1cc2cccc(Cl)c2c(=O)n1-c1ccccc1 [Compound 14]	> 10000					
C[C@H](NC(=O)c1nc(Br)cnc1N)c1cc2cccc(Cl)c2c(=O)n1-c1ccccc1 [Compound 15]	> 10000					
C[C@H](NC(=O)c1nccnc1N)c1cc2cccc(Cl)c2c(=O)n1-c1ccc(F)cc1 [Compound 19]	< 100	> 10000	100 to 1000	100 to 1000	100 to 1000	< 100
C[C@H](NC(=O)c1cnc2cccnn12)c1cc2cccc(Cl)c2c(=O)n1-c1ccc(F)cc1 [Compound 20]	100 to 1000	1000 to 10000	1000 to 10000	1000 to 10000	1000 to 10000	< 100
C[C@H](NC(=O)c1cnn2cccnc12)c1cc2cccc(Cl)c2c(=O)n1-c1ccccc1 [Compound 22]	100 to 1000	> 10000	1000 to 10000	1000 to 10000	1000 to 10000	100 to 1000
C[C@H](NC(=O)c1nc(-c2ccccc2)cnc1N)c1cc2cccc(Cl)c2c(=O)n1-c1ccccc1 [Compound 42]	1000 to 10000	> 10000	> 10000	> 10000	1000 to 10000	100 to 1000
C[C@H](NC(=O)c1cncc2cccnc12)c1cc2cccc(Cl)c2c(=O)n1-c1ccccc1 [Compound 45]	< 100	> 10000	1000 to 10000	100 to 1000	1000 to 10000	< 100
C[C@H](NC(=O)c1nccnc1N)c1cc2cccc(-c3cnn(C)c3)c2c(=O)n1-c1ccccc1 [Compound 54, (S)-3-amino-N-(1-(8-(1-methyl-1H-pyrazol-4-yl)-1-oxo-2-phenyl-1,2-dihydroisoquinolin-3-yl)ethyl)pyrazine-2-carboxamide]	100 to 1000	> 10000	> 10000	1000 to 10000	100 to 1000	< 100
C[C@H](NC(=O)c1nccnc1N)c1cc2cccc(-c3cccnc3)c2c(=O)n1-c1ccccc1 [Compound 55]	1000 to 10000	> 10000	> 10000	< 100	1000 to 10000	< 100
C[C@H](NC(=O)c1nccnc1N)c1cc2cccc(-c3cc[nH]n3)c2c(=O)n1-c1ccccc1 [Compound 59]	1000 to 10000	> 10000	> 10000	100 to 1000	1000 to 10000	< 100
C[C@H](NC(=O)c1cnn2cccnc12)c1cc2cccc(Cl)c2c(=O)n1-c1ccc(F)cc1 [Compound 62]	100 to 1000	1000 to 10000	1000 to 10000	1000 to 10000	100 to 1000	100 to 1000
C[C@H](NC(=O)c1cncc2cccnc12)c1cc2cccc(Cl)c2c(=O)n1-c1ccc(F)cc1 [Compound 65]	< 100	1000 to 10000	1000 to 10000	1000 to 10000	1000 to 10000	< 100
C[C@H](NC(=O)c1cncc2cccnc12)c1cc2cccc(C(F)(F)F)c2c(=O)n1-c1ccccc1 [Compound 67]	< 100					< 100

Structure (SMILES)	IC50 (Raw264.7 p110 γ) [nM]	IC50 (PI3K α) [nM]	IC50 (PI3K β) [nM]	IC50 (PI3K δ) [nM]	IC50 (PI3K γ) [nM]	IC50 (RAJI p110 δ) [nM]
C[C@H](NC(=O)c1csc2cccnc12)c1cc2cccc(Cl)c2c(=O)n1-c1ccccc1 [Compound 68]	1000 to 10000					1000 to 10000
C[C@H](NC(=O)c1c(N)nn2cccnc12)c1cc2cccc(Cl)c2c(=O)n1-c1ccccc1 [Compound 70]		1000 to 10000	100 to 1000	100 to 1000		< 100
C[C@H](NC(=O)c1c(N)nn2cccnc12)c1cc2cccc(C(F)(F)F)c2c(=O)n1-c1ccccc1 [Compound 71]	< 100	> 10000	1000 to 10000	1000 to 10000	100 to 1000	< 100
C[C@H](NC(=O)c1c(N)nn2cccnc12)c1cc2cccc(Cl)c2c(=O)n1-c1ccc(F)cc1 [Compound 72]	< 100	1000 to 10000	100 to 1000	1000 to 10000	< 100	< 100
CC(C)n1c([C@H](C)NC(=O)c2c(N)nn3cccnc23)cc2cccc(Cl)c2c1=O [Compound 73]	< 100	1000 to 10000	100 to 1000	1000 to 10000	100 to 1000	< 100
C[C@H](NC(=O)c1c(N)nn2cccnc12)c1cc2cccc(Cl)c2c(=O)n1C [Compound 74]	< 100	1000 to 10000	< 100	100 to 1000	100 to 1000	< 100
C[C@H](NC(=O)c1c(N)nn2cccnc12)c1cc2cccc(Cl)c2c(=O)n1-c1ccc(F)c(F)c1 [Compound 75]	< 100	1000 to 10000	1000 to 10000	1000 to 10000	< 100	100 to 1000
C[C@H](NC(=O)c1c(N)nn2cccnc12)c1cc2cccc(Cl)c2c(=O)n1C1CC1 [Compound 77]	< 100	100 to 1000	< 100	100 to 1000	100 to 1000	< 100
C[C@H](NC(=O)c1c(N)nn2cccnc12)c1cc2cccc(Cl)c2c(=O)n1-c1cccc(F)c1 [Compound 78]	< 100	1000 to 10000	100 to 1000	100 to 1000	< 100	< 100
Cc1cnc(C(=O)N[C@@H](C)c2cc3cccc(C(F)(F)F)c3c(=O)n2-c2ccccc2)c(N)n1 [Compound 80]	100 to 1000	> 10000	> 10000	> 10000	1000 to 10000	1000 to 10000
Cc1ccn2ncc(C(=O)N[C@@H](C)c3cc4cccc(Cl)c4c(=O)n3-c3ccccc3)c2n1 [Compound 82]	100 to 1000	> 10000	1000 to 10000	1000 to 10000	1000 to 10000	100 to 1000
C[C@H](NC(=O)c1nc(-c2cccc(S(C)(=O)=O)c2)cnc1N)c1cc2cccc(Cl)c2c(=O)n1-c1ccccc1 [Compound 84]	< 100		1000 to 10000	1000 to 10000	100 to 1000	100 to 1000
C[C@H](NC(=O)c1c(N)nn2cccnc12)C1Cc2cccc(F)c2C(=O)N1c1ccccc1 (stereo partly drawn) [Compound 304]		> 10000	> 10000	> 10000	> 10000	
C[C@H](NC(=O)c1cc(-c2cccc(NS(C)(=O)=O)c2)cnc1N)c1cc2cccc(Cl)c2c(=O)n1-c1ccccc1 [Compound 306]		> 10000	> 10000	> 10000	> 10000	
C[C@H](NC(=O)c1c(N)nn2c1NCCC2)c1cc2cccc(Cl)c2c(=O)n1-c1ccccc1 [Compound 307]		> 10000	> 10000	> 10000	> 10000	

From US8940742B2, “Heterocyclic compounds and uses thereof” (Infinity Pharmaceuticals, Inc., priority 2012, dated 2015)
